From PubChem BioAssay AID1963842 (Molecular Pharmacology Branch, DTP, NCI, 2024)
pIC50: −log10 of the molar value.

Tested on: 677734-321-R-J1-PDC complex spheroid viability
Assay: Anticancer human tumor 677734-321-R-J1-PDC patient-derived soft tissue sarcoma cell line growth inhibition [POLQ]
Settings: for pIC50: curve of first compound; for viability, T/C: stronger effect = lower value
In short: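 Complex spheroid viability model combining PDC tumour cells with endothelial (HUVEC) and MSC stromal cells. Novobiocin, ART-558 or RP6685 were tested singly and in combination with standard and investigational anticancer drugs. Each was titrated in half-log steps from near clinical Cmax, or from 10 microM where Cmax was unknown.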

[1] = second compound 0.0316 µM, first compound 0.0316 µM
[2] = second compound 0.0316 µM, first compound 0.1 µM
[3] = second compound 0.0316 µM, first compound 0.316 µM
[4] = second compound 0.0316 µM, first compound 1 µM
[5] = second compound 0.1 µM, first compound 0.0316 µM
[6] = second compound 0.1 µM, first compound 0.1 µM
[7] = second compound 0.1 µM, first compound 0.316 µM
[8] = second compound 0.1 µM, first compound 1 µM
[9] = second compound 0.316 µM, first compound 0.0316 µM
[10] = second compound 0.316 µM, first compound 0.1 µM
[11] = second compound 0.316 µM, first compound 0.316 µM
[12] = second compound 0.316 µM, first compound 1 µM
[13] = second compound 1 µM, first compound 0.0316 µM
[14] = second compound 1 µM, first compound 0.1 µM
[15] = second compound 1 µM, first compound 0.316 µM
[16] = second compound 1 µM, first compound 1 µM
[17] = second compound 3.16 µM, first compound 0.0316 µM
[18] = second compound 3.16 µM, first compound 0.1 µM
[19] = second compound 3.16 µM, first compound 0.316 µM
[20] = second compound 3.16 µM, first compound 1 µM
[21] = second compound 10 µM, first compound 0.0316 µM
[22] = second compound 10 µM, first compound 0.1 µM
[23] = second compound 10 µM, first compound 0.316 µM
[24] = second compound 10 µM, first compound 1 µM
[25] = second compound 0.0316 µM, first compound 3.16 µM
[26] = second compound 0.0316 µM, first compound 10 µM
[27] = second compound 0.1 µM, first compound 3.16 µM
[28] = second compound 0.1 µM, first compound 10 µM
[29] = second compound 0.316 µM, first compound 3.16 µM
[30] = second compound 0.316 µM, first compound 10 µM
[31] = second compound 1 µM, first compound 3.16 µM
[32] = second compound 1 µM, first compound 10 µM
[33] = second compound 3.16 µM, first compound 3.16 µM
[34] = second compound 3.16 µM, first compound 10 µM
[35] = second compound 10 µM, first compound 3.16 µM
[36] = second compound 10 µM, first compound 10 µM
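Further: spheroids exposed to compounds for one week.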
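Wherever viability, T/C is given: 100% = vehicle DMSO treated spheroids.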

## C=CCn1c(=O)c2cnc(Nc3ccc(N4CCN(C)CC4)cc3)nc2n1-c1cccc(C(C)(C)O)n1 + Nc1ccc(C#CCN(C(=O)Cc2ncc(C(F)(F)F)cc2C(F)(F)F)c2ccc(F)cc2)nn1
Second compound 0.0316 µM
  pIC50: 6.14
Second compound 0.1 µM
  pIC50: 6.17
Second compound 0.316 µM
  pIC50: 6.18
Second compound 1 µM
  pIC50: 6.19
Second compound 3.16 µM
  pIC50: 6.30
Second compound 10 µM
  pIC50: 6.09
Second compound 0.0316 µM, first compound 0.00316 µM
  viability, T/C: 114%
Second compound 0.0316 µM, first compound 0.01 µM
  viability, T/C: 107%
[1]
  viability, T/C: 102%
[2]
  viability, T/C: 102%
[3]
  viability, T/C: 84.1%
[4]
  viability, T/C: 36.7%
Second compound 0.1 µM, first compound 0.00316 µM
  viability, T/C: 107%
Second compound 0.1 µM, first compound 0.01 µM
  viability, T/C: 111%
[5]
  viability, T/C: 122%
[6]
  viability, T/C: 97.2%
[7]
  viability, T/C: 80.8%
[8]
  viability, T/C: 35.1%
Second compound 0.316 µM, first compound 0.00316 µM
  viability, T/C: 119%
Second compound 0.316 µM, first compound 0.01 µM
  viability, T/C: 102%
[9]
  viability, T/C: 110%
[10]
  viability, T/C: 104%
[11]
  viability, T/C: 81.1%
[12]
  viability, T/C: 32.5%
Second compound 1 µM, first compound 0.00316 µM
  viability, T/C: 106%
Second compound 1 µM, first compound 0.01 µM
  viability, T/C: 102%
[13]
  viability, T/C: 112%
[14]
  viability, T/C: 93.2%
[15]
  viability, T/C: 85.4%
[16]
  viability, T/C: 29.3%
Second compound 3.16 µM, first compound 0.00316 µM
  viability, T/C: 114%
Second compound 3.16 µM, first compound 0.01 µM
  viability, T/C: 96.3%
[17]
  viability, T/C: 103%
[18]
  viability, T/C: 104%
[19]
  viability, T/C: 59%
[20]
  viability, T/C: 35.9%
Second compound 10 µM, first compound 0.00316 µM
  viability, T/C: 116%
Second compound 10 µM, first compound 0.01 µM
  viability, T/C: 113%
[21]
  viability, T/C: 108%
[22]
  viability, T/C: 97.1%
[23]
  viability, T/C: 74.6%
[24]
  viability, T/C: 44.2%

## CC1COCCN1c1cc(C2(S(C)(=N)=O)CC2)nc(-c2ccnc3[nH]ccc23)n1 (stereo unspecified) + Nc1ccc(C#CCN(C(=O)Cc2ncc(C(F)(F)F)cc2C(F)(F)F)c2ccc(F)cc2)nn1
Second compound 0.0316 µM
  pIC50: 5.86
Second compound 0.1 µM
  pIC50: 5.91
Second compound 0.316 µM
  pIC50: 6.06
Second compound 1 µM
  pIC50: 5.99
Second compound 3.16 µM
  pIC50: 6.05
Second compound 10 µM
  pIC50: 6.18
[1]
  viability, T/C: 98.3%
[2]
  viability, T/C: 91.7%
[3]
  viability, T/C: 75%
[4]
  viability, T/C: 65.3%
[25]
  viability, T/C: 23.5%
[26]
  viability, T/C: 9.33%
[5]
  viability, T/C: 96.2%
[6]
  viability, T/C: 118%
[7]
  viability, T/C: 73.6%
[8]
  viability, T/C: 57.1%
[27]
  viability, T/C: 28.1%
[28]
  viability, T/C: 7.36%
[9]
  viability, T/C: 109%
[10]
  viability, T/C: 105%
[11]
  viability, T/C: 105%
[12]
  viability, T/C: 42.7%
[29]
  viability, T/C: 27.1%
[30]
  viability, T/C: 9.47%
[13]
  viability, T/C: 118%
[14]
  viability, T/C: 94.5%
[15]
  viability, T/C: 72.9%
[16]
  viability, T/C: 59.2%
[31]
  viability, T/C: 19.1%
[32]
  viability, T/C: 8.77%
[17]
  viability, T/C: 111%
[18]
  viability, T/C: 87.1%
[19]
  viability, T/C: 96.9%
[20]
  viability, T/C: 43.3%
[33]
  viability, T/C: 21.7%
[34]
  viability, T/C: 8.55%
[21]
  viability, T/C: 105%
[22]
  viability, T/C: 103%
[23]
  viability, T/C: 72.6%
[24]
  viability, T/C: 35.2%
[35]
  viability, T/C: 19.3%
[36]
  viability, T/C: 6.41%

## CCCS(=O)(=O)Nc1ccc(F)c(C(=O)c2c[nH]c3ncc(-c4ccc(Cl)cc4)cc23)c1F + Nc1ccc(C#CCN(C(=O)Cc2ncc(C(F)(F)F)cc2C(F)(F)F)c2ccc(F)cc2)nn1
Second compound 0.0316 µM
  pIC50: 5.29
Second compound 0.1 µM
  pIC50: 5.27
Second compound 0.316 µM
  pIC50: 5.26
Second compound 1 µM
  pIC50: 5.35
Second compound 3.16 µM
  pIC50: 5.37
Second compound 10 µM
  pIC50: 5.33
[1]
  viability, T/C: 96.6%
[2]
  viability, T/C: 106%
[3]
  viability, T/C: 97.2%
[4]
  viability, T/C: 104%
[25]
  viability, T/C: 80%
[26]
  viability, T/C: 7%
[5]
  viability, T/C: 107%
[6]
  viability, T/C: 109%
[7]
  viability, T/C: 87.5%
[8]
  viability, T/C: 98.9%
[27]
  viability, T/C: 86.8%
[28]
  viability, T/C: 6.32%
[9]
  viability, T/C: 99%
[10]
  viability, T/C: 101%
[11]
  viability, T/C: 102%
[12]
  viability, T/C: 108%
[29]
  viability, T/C: 87.9%
[30]
  viability, T/C: 7.94%
[13]
  viability, T/C: 107%
[14]
  viability, T/C: 103%
[15]
  viability, T/C: 107%
[16]
  viability, T/C: 98.6%
[31]
  viability, T/C: 68%
[32]
  viability, T/C: 9.46%
[17]
  viability, T/C: 121%
[18]
  viability, T/C: 110%
[19]
  viability, T/C: 102%
[20]
  viability, T/C: 96.6%
[33]
  viability, T/C: 67.2%
[34]
  viability, T/C: 5.17%
[21]
  viability, T/C: 96.8%
[22]
  viability, T/C: 105%
[23]
  viability, T/C: 96.1%
[24]
  viability, T/C: 113%
[35]
  viability, T/C: 73.2%
[36]
  viability, T/C: 5.45%
